Experimental data reported in ChEMBL document CHEMBL1140680 (Bioorg Med Chem Lett, 2007).
pIC50: −log10 of the molar value. ≈ marks a conversion by molar mass, not a printed value.

Tests used:
Escherichia coli = test: Inhibition of transcription and translation activity in Escherichia coli by luciferase reporter assay; assay type: functional, organism-based
Staphylococcus aureus = test: Antibacterial activity against Staphylococcus aureus UC76 SA1 by micro-broth method; assay type: functional
Streptococcus pneumoniae = test: Antibacterial activity against Streptococcus pneumoniae SV1 SP3 by micro-broth method; assay type: functional
Streptococcus pyogenes = test: Antibacterial activity against Streptococcus pyogenes C203 SP1-1 by micro-broth method; assay type: functional
Enterococcus faecalis = test: Antibacterial activity against Enterococcus faecalis MG2 EF1 by micro-broth method; assay type: functional
Haemophilus influenzae = test: Antibacterial activity against Heamophilus influenzae HI3542 by microbroth method; assay type: functional
Moraxella catarrhalis = test: Antibacterial activity against Moraxella catarrhalis BC-3531 by micro-broth method; assay type: functional

SMILES	pIC50 (Escherichia coli)	MIC (Staphylococcus aureus)	MIC (Streptococcus pneumoniae)	MIC (Streptococcus pyogenes)	MIC (Enterococcus faecalis)	MIC (Haemophilus influenzae)	MIC (Moraxella catarrhalis)
CC(=O)NC[C@H]1CN(c2ccc3c(c2)CCCc2c(C)n[nH]c2-3)C(=O)O1	5.92	1 µg/mL (≈ 2.82 µM)	0.5 µg/mL (≈ 1.41 µM)	0.5 µg/mL (≈ 1.41 µM)	1 µg/mL (≈ 2.82 µM)	4 µg/mL (≈ 11.3 µM)	4 µg/mL (≈ 11.3 µM)
CCc1n[nH]c2c1CCCc1cc(N3C[C@H](CNC(C)=O)OC3=O)ccc1-2	5.96	0.5 µg/mL (≈ 1.36 µM)	0.125 µg/mL (≈ 0.339 µM)	0.125 µg/mL (≈ 0.339 µM)	0.25 µg/mL (≈ 0.679 µM)	4 µg/mL (≈ 10.9 µM)	1 µg/mL (≈ 2.71 µM)
CCCc1n[nH]c2c1CCCc1cc(N3C[C@H](CNC(C)=O)OC3=O)ccc1-2	5.51	2 µg/mL (≈ 5.23 µM)	0.5 µg/mL (≈ 1.31 µM)	0.5 µg/mL (≈ 1.31 µM)	1 µg/mL (≈ 2.61 µM)	16 µg/mL (≈ 41.8 µM)	4 µg/mL (≈ 10.5 µM)
CC(=O)NC[C@H]1CN(c2ccc3c(c2)CCCc2c(C(F)(F)F)n[nH]c2-3)C(=O)O1	5.89	1 µg/mL (≈ 2.45 µM)	0.25 µg/mL (≈ 0.612 µM)	1 µg/mL (≈ 2.45 µM)	1 µg/mL (≈ 2.45 µM)	4 µg/mL (≈ 9.79 µM)	1 µg/mL (≈ 2.45 µM)
CC(=O)NC[C@H]1CN(c2ccc3c(c2)CCCc2c(C(C)C)n[nH]c2-3)C(=O)O1	5.37	2 µg/mL (≈ 5.23 µM)	0.5 µg/mL (≈ 1.31 µM)	1 µg/mL (≈ 2.61 µM)	2 µg/mL (≈ 5.23 µM)	16 µg/mL (≈ 41.8 µM)	8 µg/mL (≈ 20.9 µM)
